Measurements: US8609719B2, “Propargylated aminoindans, processes for preparation, and uses thereof” (priority 2006, dated 2013)
Counter-ions that a name gives are not always drawn. Like-named read-outs stand apart in the source and are kept apart here.

What was measured:
[1] = molecular target: T1, MAO-A (Rattus norvegicus, UniProt P21396); test: Inhibition of MAO activity in vitro (5-HT substrate); type: biochemical; settings: rat brain homogenate; 5-HT 100 uM; 60 minutes pre-incubation at 37° C.; read-out: IC50 for MAO-A inhibition
T1 construct: from tissue; host or cells: brain, liver and intestine (duodenum) of dosed rats
T1 sequence (P21396 1-526): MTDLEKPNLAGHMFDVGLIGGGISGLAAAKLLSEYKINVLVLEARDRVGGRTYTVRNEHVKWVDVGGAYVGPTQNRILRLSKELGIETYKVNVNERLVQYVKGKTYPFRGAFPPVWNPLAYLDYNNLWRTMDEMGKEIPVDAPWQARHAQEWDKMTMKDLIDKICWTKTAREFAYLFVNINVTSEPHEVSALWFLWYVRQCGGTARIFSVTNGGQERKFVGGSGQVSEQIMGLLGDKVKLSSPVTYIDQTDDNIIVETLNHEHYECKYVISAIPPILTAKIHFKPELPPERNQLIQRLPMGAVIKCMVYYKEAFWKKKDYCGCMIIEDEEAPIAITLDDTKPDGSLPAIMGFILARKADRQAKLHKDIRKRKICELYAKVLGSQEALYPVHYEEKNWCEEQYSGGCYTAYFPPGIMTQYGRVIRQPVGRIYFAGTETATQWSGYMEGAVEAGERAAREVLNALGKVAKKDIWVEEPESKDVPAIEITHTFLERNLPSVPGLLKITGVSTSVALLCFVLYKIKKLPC
Experimental: The MAO enzyme source was a homogenate of rat brain in 0.3M sucrose. The homogenate was diluted appropriately, and pre-incubated with serial dilutions of test compounds—diluted in phosphate buffer containing clogyline when 2-phenylethylamine (PEA) is the substrate, and diluted in phosphate buffer containing selegiline when 5-hydroxytryptamine (5-HT) is the substrate—for 60 minutes at 37° C. 14C-Labeled substrates (PEA for MAO-B determination and 5-HT for MAO-A determination) were then added, and the incubation continued for a further 20 minutes (PEA) or 30 minutes (5-HT). Substrate concentrations used were 10 μM (PEA) and 100 uM (5-HT). Enzyme concentration was chosen so that not more than 10% of the substrate was metabolized during the course of the reaction. Deaminated products were extracted into toluene-ethyl acetate (1:1 v/v) containing 0.4% (w/v) 2,5-diphenyloxazole (ppo) prior to determination by liquid scintillation counting. Radioactivity in the eluate indicated the production of neutral and acidic metabolites formed as a result of MAO activity. Activity of MAO in the sample was expressed as a percentage of control activity in the absence of inhibitor after subtraction of appropriate blank values. The activity determined using PEA as substrate is referred to as MAO-B, and that determined using 5-HT as MAO-A.
Concentrations of each inhibitor producing 50% inhibition of substrate metabolism (IC50) were calculated from the inhibition curves, and are shown in Table 1.

[2] = molecular target: T1, MAO-A; test: MAO-A inhibition in rat organs after chronic P.O. administration; type: in vivo; settings: po, 7 days, 2 hours after last dose; for inhibition at 37.5 µmol/kg: 37.5 μmol/kg P.O. daily; for inhibition at 75 µmol/kg: 75 μmol/kg P.O. daily; for inhibition at 150 µmol/kg: 150 μmol/kg P.O. daily
Experimental: (§1) 30 rats were separated randomly into 5 testing groups of 6 rats each. Group 1 was the control group to which no drug was administered. Ethyl-hydroxymethyl-carbamic acid 3-R-(prop-2-ynylamino)-indan-5-yl ester fumarate (2:1) was administered to groups 2, 3, 4 in dosages of 150, 75, and 37.5 μmol/kg respectively, daily, perorally (“P.O.”) for seven consecutive days. Water was used as a vehicle.
(§2) Rats were sacrificed, out of sight of the other rats, 2 hours after the last administration. Brains were removed into Petri dishes on ice, the cerebellums were […], and the brains cut into halves for analysis. Livers and intestines were removed for MAO determination. Organs were homogenated for enzyme inhibition analysis.
(§3) The MAO inhibition after administration of ethyl-hydroxymethyl-carbamic acid 3-R-(prop-2-ynylamino)-indan-5-yl ester fumarate (2:1) in various organs is listed in Table 4 calculated in percent relative to the control group.

[3] = test system: MAO; test: MAO inhibition in rat organs after chronic administration, overall conclusion; type: in vivo; settings: rats, P.O. daily for seven days
Experimental: as §1, §2, §3

[4] = Pharmacokinetic analysis of ladostigil and metabolites in Alzheimer's disease patients; settings: human, in vivo, 100 mg; for Cmax / AUC / AUC(0-t): after ladostigil tartrate 100 mg twice daily; for concentration at 12 h: mean concentration at pre-dose, 12 hours after the previous dose of ladostigil tartrate; for AUC: AUC (M)
[5] = read-out: Brain MAO-A inhibition relative to control
[6] = read-out: Duodenum MAO-A inhibition relative to control
[7] = read-out: Liver MAO-A inhibition relative to control

## C#CCN[C@@H]1CCc2ccc(OC(=O)N(CC)CO)cc21 [R-HCPAI, Ethyl-hydroxymethyl-carbamic acid 3-R-(prop-2-ynylamino)-indan-5-yl ester fumarate (2:1)]
[1]
  IC50: 414 µM
[2]; [5]
  inhibition at 37.5 µmol/kg: 8%
  inhibition at 75 µmol/kg: 41%
  inhibition at 150 µmol/kg: 72%
[2]; [6]
  inhibition at 37.5 µmol/kg: -25%
  inhibition at 75 µmol/kg: 18%
  inhibition at 150 µmol/kg: 21%
[2]; [7]
  inhibition at 37.5 µmol/kg: 3%
  inhibition at 75 µmol/kg: 9%
  inhibition at 150 µmol/kg: 16%
[3]
  organ selectivity of MAO inhibition, in words: brain-selective MAO inhibition
[4]; both
  half-life: 1.03 h
[4]; both, Cmax (M), mean, mean of patients, maintenance analysis Week 4
  Cmax: 3.63e-06 M
[4]; both, Cmax (T), mean, mean of patients, termination analysis Week 9
  Cmax: 3.3e-06 M
[4]; both, Cmin (M), mean of patients, maintenance analysis Week 4
  concentration at 12 h: 2.32e-08 M
[4]; both, Cmin (T), mean of patients, termination analysis Week 9
  concentration at 12 h: 1.37e-08 M
[4]; Patient 1, maintenance analysis Week 4
  AUC: 1660 ng·h/mL
[4]; Patient 2, maintenance analysis Week 4
  AUC: 600 ng·h/mL
[4]; Patient 3, maintenance analysis Week 4
  AUC: 2290 ng·h/mL
[4]; Patient 4, maintenance analysis Week 4
  AUC: 2150 ng·h/mL
[4]; Patient 5, maintenance analysis Week 4
  AUC: 1700 ng·h/mL
[4]; Patient 6, maintenance analysis Week 4
  AUC: 1890 ng·h/mL
[4]; Patient 7, maintenance analysis Week 4
  AUC: 519 ng·h/mL
[4]; Patient 8, maintenance analysis Week 4
  AUC: 1510 ng·h/mL
[4]; Patient 1, termination analysis Week 9
  AUC(0-t): 1300 ng·h/mL
[4]; Patient 2, termination analysis Week 9
  AUC(0-t): 3100 ng·h/mL
[4]; Patient 3, termination analysis Week 9
  AUC(0-t): 2520 ng·h/mL
[4]; Patient 4, termination analysis Week 9
  AUC(0-t): 1740 ng·h/mL
[4]; Patient 5, termination analysis Week 9
  AUC(0-t): 1650 ng·h/mL
[4]; Patient 6, termination analysis Week 9
  AUC(0-t): 2400 ng·h/mL
[4]; Patient 7, termination analysis Week 9
  AUC(0-t): 1040 ng·h/mL
[4]; Patient 8, termination analysis Week 9
  AUC(0-t): 1340 ng·h/mL
[4]; Cmax (M), Patient 1, maintenance analysis Week 4
  Cmax: 3.6e-06 M
[4]; Cmax (M), Patient 2, maintenance analysis Week 4
  Cmax: 1.5e-06 M
[4]; Cmax (M), Patient 3, maintenance analysis Week 4
  Cmax: 3.7e-06 M
[4]; Cmax (M), Patient 4, maintenance analysis Week 4
  Cmax: 7e-06 M
[4]; Cmax (M), Patient 5, maintenance analysis Week 4
  Cmax: 4.7e-06 M
[4]; Cmax (M), Patient 6, maintenance analysis Week 4
  Cmax: 4e-06 M
[4]; Cmax (M), Patient 7, maintenance analysis Week 4
  Cmax: 1.2e-06 M
[4]; Cmax (M), Patient 8, maintenance analysis Week 4
  Cmax: 3.3e-06 M
[4]; Cmax (T), Patient 1, termination analysis Week 9
  Cmax: 3.2e-06 M
[4]; Cmax (T), Patient 2, termination analysis Week 9
  Cmax: 3.9e-06 M
[4]; Cmax (T), Patient 3, termination analysis Week 9
  Cmax: 3.9e-06 M
[4]; Cmax (T), Patient 4, termination analysis Week 9
  Cmax: 3.9e-06 M
[4]; Cmax (T), Patient 5, termination analysis Week 9
  Cmax: 3.7e-06 M
[4]; Cmax (T), Patient 6, termination analysis Week 9
  Cmax: 3.2e-06 M
[4]; Cmax (T), Patient 7, termination analysis Week 9
  Cmax: 2.1e-06 M
[4]; Cmax (T), Patient 8, termination analysis Week 9
  Cmax: 2.6e-06 M
